Experimental data published in ChEMBL document CHEMBL1201862, “PubChem BioAssay data set” (2004).
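Method: 48-hour compound exposure of cells in 96-well plates, five concentrations, linear interpolation of endpoints. GI50 is the concentration that inhibits growth by half.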 Active and inactive are the calls of the source. Rule as the data show it: active = GI50 up to about 1.1 µM and inactive = higher.

Assays:
Assay in all cases: NCI-60 cell line screen, 48 h
[1] = test system: NCI-H23
[2] = test system: SK-OV-3
[3] = test system: SF-295
[4] = test system: UACC-257
[5] = test system: HCT-116
[6] = test system: HOP-92
[7] = test system: RPMI-8226
[8] = test system: SF-539
[9] = test system: SR
[10] = test system: RXF 393
[11] = test system: UO-31
[12] = test system: SK-MEL-28
[13] = test system: LXFL 529
[14] = test system: SK-MEL-5
[15] = test system: K562
[16] = test system: M14
[17] = test system: A498

| SMILES | GI50 [1] | GI50 [2] | GI50 [3] | GI50 [4] | GI50 [5] | GI50 [6] | GI50 [7] | GI50 [8] | GI50 [9] | GI50 [10] | GI50 [11] | GI50 [12] | GI50 [13] | GI50 [14] | GI50 [15] | GI50 [16] | GI50 [17] |
| --- | --- | --- | --- | --- | --- | --- | --- | --- | --- | --- | --- | --- | --- | --- | --- | --- | --- |
| CC(=O)NC1=C(C)C(=O)c2c(nc3n2CCC3OC(=O)CCl)C1=O (stereo not drawn) | 11.7 µM (inactive) | 16.1 µM (inactive) | 16.1 µM (inactive) | 12.7 µM (inactive) | 2.3 µM (inactive) | 2.33 µM (inactive) | 2.65 µM (inactive) | 2.73 µM (inactive) | 2.68 µM (inactive) | 5.43 µM (inactive) | 18 µM (inactive) | 17.2 µM (inactive) | 2.11 µM (inactive) | 12.7 µM (inactive) | 2.19 µM (inactive) | 18.2 µM (inactive) | 12.6 µM (inactive) |
| COC(=O)C12OCC34C(CC5C(C)C6=CC(=O)OC6=CC5(C)C3C(O)C1O)OC(=O)C(O)C24 (stereo not drawn) | 0.238 µM (active) | 5.16 µM (inactive) | 1.53 µM (inactive) | 1.5 µM (inactive) | 0.306 µM (active) | 0.231 µM (active) | 0.0809 µM (active) | 0.103 µM (active) | < 0.01 µM (active) | 0.493 µM (active) | 16.1 µM (inactive) | 0.169 µM (active) | 0.101 µM (active) | 0.0794 µM (active) | 0.205 µM (active) | – | 0.544 µM (active) |
| O=S(=O)(/C=C/c1ccc(Cl)cc1Cl)Cc1ccccc1CS(=O)(=O)/C=C/c1ccc(Cl)cc1Cl | > 100 µM (inactive) | > 100 µM (inactive) | 89.3 µM (inactive) | 52.8 µM (inactive) | 9.59 µM (inactive) | 35.8 µM (inactive) | 5.15 µM (inactive) | > 100 µM (inactive) | > 100 µM (inactive) | 65.2 µM (inactive) | > 100 µM (inactive) | > 100 µM (inactive) | 43.1 µM (inactive) | – | 61.1 µM (inactive) | > 100 µM (inactive) | 33.5 µM (inactive) |
| Nc1c(S(=O)(=O)c2ccccc2)c2nc3ccccc3nc2n2c1nc1ccccc12 | 19.4 µM (inactive) | > 100 µM (inactive) | > 34.7 µM (inactive) | > 51.5 µM (inactive) | 56.2 µM (inactive) | > 100 µM (inactive) | > 100 µM (inactive) | 11.1 µM (inactive) | > 71.6 µM (inactive) | > 100 µM (inactive) | > 100 µM (inactive) | 10.4 µM (inactive) | > 52 µM (inactive) | 32.4 µM (inactive) | 22.4 µM (inactive) | 16.2 µM (inactive) | > 100 µM (inactive) |
| CCOC(=O)C12CCCC1(O)N(NC(=O)c1cccc(Cl)c1)C(C)=C2C(=O)OC (stereo not drawn) | – | > 100 µM (inactive) | 72.4 µM (inactive) | 69.5 µM (inactive) | > 100 µM (inactive) | – | 56 µM (inactive) | > 100 µM (inactive) | 53 µM (inactive) | 46.5 µM (inactive) | > 100 µM (inactive) | > 100 µM (inactive) | > 100 µM (inactive) | > 100 µM (inactive) | 96.6 µM (inactive) | > 100 µM (inactive) | > 100 µM (inactive) |
| OCC(O)C(OC1OC(CO)C(O)C(O)C1O)c1nn(-c2ccc(Cl)cc2)c2nc3cc(Cl)c(Cl)cc3nc12 (stereo not drawn) | > 100 µM (inactive) | > 100 µM (inactive) | > 100 µM (inactive) | > 100 µM (inactive) | > 100 µM (inactive) | – | > 100 µM (inactive) | > 100 µM (inactive) | > 100 µM (inactive) | > 100 µM (inactive) | > 100 µM (inactive) | > 100 µM (inactive) | > 100 µM (inactive) | – | > 100 µM (inactive) | > 100 µM (inactive) | > 100 µM (inactive) |
| COC(=O)c1cccn1C(=O)n1cccc1 | > 100 µM (inactive) | > 100 µM (inactive) | > 100 µM (inactive) | > 100 µM (inactive) | > 100 µM (inactive) | > 100 µM (inactive) | – | > 100 µM (inactive) | > 100 µM (inactive) | > 100 µM (inactive) | > 100 µM (inactive) | > 100 µM (inactive) | > 100 µM (inactive) | > 100 µM (inactive) | > 100 µM (inactive) | > 100 µM (inactive) | > 100 µM (inactive) |
| CCN(CC)CC(=O)NC1c2ccccc2Oc2c(C)cccc21 (stereo not drawn) | > 100 µM (inactive) | > 100 µM (inactive) | – | > 100 µM (inactive) | 95.5 µM (inactive) | – | 78.7 µM (inactive) | > 100 µM (inactive) | 57.7 µM (inactive) | 38.7 µM (inactive) | 23.2 µM (inactive) | > 100 µM (inactive) | > 100 µM (inactive) | 69.5 µM (inactive) | 53.1 µM (inactive) | > 100 µM (inactive) | – |
| N#CC12Cc3ccc4c(c3-c3cccc(c31)CCN2C(=O)c1ccccc1)OCO4 (stereo not drawn) | > 100 µM (inactive) | > 100 µM (inactive) | > 100 µM (inactive) | > 100 µM (inactive) | > 100 µM (inactive) | 36.2 µM (inactive) | > 100 µM (inactive) | > 100 µM (inactive) | > 100 µM (inactive) | > 100 µM (inactive) | > 100 µM (inactive) | > 100 µM (inactive) | > 100 µM (inactive) | > 100 µM (inactive) | > 100 µM (inactive) | > 100 µM (inactive) | 68.4 µM (inactive) |
| O=CC1=CCC2c3[nH]c4ccccc4c3CCN2C1 (stereo not drawn) | 83 µM (inactive) | 132 µM (inactive) | 106 µM (inactive) | 98.9 µM (inactive) | 61.7 µM (inactive) | 111 µM (inactive) | 112 µM (inactive) | 175 µM (inactive) | 105 µM (inactive) | 182 µM (inactive) | – | 90.6 µM (inactive) | 55.7 µM (inactive) | 114 µM (inactive) | 130 µM (inactive) | – | – |
| Clc1ccc(CCn2cncn2)c(Cl)c1 | > 100 µM (inactive) | > 100 µM (inactive) | > 100 µM (inactive) | > 100 µM (inactive) | > 100 µM (inactive) | > 100 µM (inactive) | – | > 100 µM (inactive) | > 100 µM (inactive) | – | > 100 µM (inactive) | > 100 µM (inactive) | > 100 µM (inactive) | > 100 µM (inactive) | > 100 µM (inactive) | > 100 µM (inactive) | – |
| O=C(O)C[C@@H](Cl)[C@H](NC(=O)OCc1ccccc1)C(=O)O | > 100 µM (inactive) | > 100 µM (inactive) | > 100 µM (inactive) | > 100 µM (inactive) | > 100 µM (inactive) | > 100 µM (inactive) | > 100 µM (inactive) | > 100 µM (inactive) | – | > 100 µM (inactive) | > 100 µM (inactive) | > 100 µM (inactive) | > 100 µM (inactive) | > 100 µM (inactive) | > 100 µM (inactive) | > 100 µM (inactive) | > 100 µM (inactive) |
| COC(=O)C1CCC2(C)[C@H](CCC3O[C@]32C)[C@@]1(C)CC(=O)c1ccoc1 (stereo partly drawn) | 71 µM (inactive) | 0.0406 µM (active) | > 100 µM (inactive) | > 100 µM (inactive) | 65.6 µM (inactive) | – | 52.7 µM (inactive) | > 100 µM (inactive) | 41.5 µM (inactive) | > 100 µM (inactive) | 27.9 µM (inactive) | > 100 µM (inactive) | 40.6 µM (inactive) | 66.1 µM (inactive) | 46.1 µM (inactive) | > 100 µM (inactive) | 43 µM (inactive) |
